Laboratory results as given in US8252740B2, “Thermally-targeted delivery of medicaments including doxorubicin” (The University of Mississippi Medical Center, priority 2006, dated 2012).
Like-named read-outs stand apart in the source and are kept apart here.

Test system: MES-SA uterine sarcoma cells
Format: cell-based, human
Details: for Inhibition of cell proliferation: 5 μM, counted after 72 h; for IC50: cells counted after 72 h, ± SEM
Description: MES-SA cells were treated for 1 h at 37 or 42° C. with 5 μM Tat-ELP-GFLG-DOX (SEQ ID NO: 3); ELP-GFLG-DOX (SEQ ID NO: 3), which lacks the Tat cell penetrating peptide; or Tat-ELP-GFLG (SEQ ID NO: 3), which is not labeled with DOX. After the 1 h treatment, cells were rinsed and fresh media was replaced for 72 h. Cells remaining after 72 h were collected by trypsinization and counted using a Coulter counter. […] Similarly, the control polypeptide which lacks the Tat sequence was not cytotoxic, likely because it cannot efficiently enter the cells.
1.8 Cytotoxicity Assay. Cells were plated and treated for 1 h at 37° C. and 42° C. as described above with Tat-ELP1-GFLG-Dox (SEQ ID NO: 3), Tat-ELP2-GFLG-Dox (SEQ ID NO: 3), or control polypeptides lacking the Tat sequence or unlabeled with Dox. Cells were rinsed and harvested 72 h after treatment by trypsinization, collected by centrifugation, and resuspended in isotonic buffer. Cell number was determined using a Coulter counter and expressed as a percentage of untreated cells.
1.10. Data Fitting and Statistical Analysis. The concentration dependence of the Tt was fit with a logarithmic equation using Microsoft Excel. Dose-response curves were fit using exponential or sigmoid equations as applicable using Microcal Origin in order to determine the 50% inhibitory concentration (IC50). […] The significance of the thermal targeting index was assessed by comparing the normothermia group with the hyperthermia group using a paired Student's t-test in Microsoft Excel. p values of less than 0.05 were considered statistically significant. Polypeptide uptake and caspase activation were analyzed for statistical differences using one-way ANOVA analyses with post-hoc Scheffe's tests for pair-wise comparisons of treatment groups. The statistical significance level was p<0.05.
3.5. Cytotoxicity of ELP-delivered Dox. The growth-inhibitory activity of Tat-ELP-GFLG-Dox (SEQ ID NO: 3) was evaluated in the MES-SA uterine sarcoma cell line. MES-SA cells were treated for 1 h at 37° C. or 42° C. with various concentrations of Tat-ELP-GFLG-Dox (SEQ ID NO: 3); ELP-GFLG-Dox (SEQ ID NO: 3), which lacks the Tat cell penetrating peptide, the Tat-ELP-GFLG (SEQ ID NO: 3) polypeptide without Dox; or free Dox. After the 1 h treatment, the cells were rinsed and fresh media was replaced for 72 h. Cells remaining after 72 h were rinsed, collected by trypsinization, and counted using a Coulter counter. […] The toxicity of the unlabeled Tat-ELP-GFLG (SEQ ID NO: 3) protein was negligible when treated below the Tt.

With Tat-ELP1-GFLG-Dox the Cytotoxicity in words was “cytotoxic at 37° C., but high concentrations were needed”, the “Enhancement of cytotoxicity (reduction of IC50) by hyperthermia” value was “twenty-fold” and the “Inhibition of cell proliferation” value (1 h at 37° C.) was “little toxicity”. The “Inhibition of cell proliferation” value (1 h at 42° C.) was “complete inhibition of cell proliferation”, the IC50 (1 h treatment at 37° C., read-out: IC50 (37° C.)) was 21.9 ± 8.2 µM and the IC50 (1 h treatment at 42° C., read-out: IC50 (42° C.)) was 1.1 ± 0.1 µM.
